According to the supplement of paper PMC10331698:
± gives the standard deviation of the averaged measurements.

Key:
Assay in all cases: level (log10 ratio to DMSO vehicle control); higher = higher biomarker level / cell amount than vehicle control
[1] = compound: CCN(CCO)S(=O)(=O)C(F)(F)C(F)(F)C(F)(F)C(F)(F)C(F)(F)C(F)(F)C(F)(F)C(F)(F)F [N-Ethyl-N-(2-hydroxyethyl)perfluorooctanesulfonamide]; conditions: in DMSO
Procedure: (§1)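 BioMAP Diversity Plus panel of 12 human primary cell co-culture systems (3C, 4H, LPS, SAg, BT, BF4T, BE3C, CASM3C, HDF3CGF, KF3CT, MyoF, Mphg). Compounds were added 1 h before stimulation and left for 24 h (MyoF 48 h; BT 72 h for soluble read-outs or 6 d for IgG). Biomarkers were read by ELISA, cytotoxicity by SRB, PBMC viability and proliferation by Alamar Blue. Each well value was divided by the mean of 8 DMSO control wells on the same plate and log10 transformed; duplicate blinded samples were tested at 4 concentrations.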

[2] = compound: FC(F)(F)C(F)(C(F)(F)F)C(F)(F)C(F)(F)CC1CO1 [3-(Perfluoro-3-methylbutyl)-1,2-propenoxide]; conditions: in DMSO
Procedure: as §1

[3] = compound: FC(F)(F)C(F)(F)C(F)(F)C(F)(F)C(F)(F)CCI [1-Iodo-1H,1H,2H,2H-perfluoroheptane]; conditions: in DMSO
Procedure: as §1

[4] = compound: NCC(F)(F)C(F)(F)C(F)(F)C(F)(F)C(F)(F)C(F)(F)C(F)(F)F [1H,1H-Perfluorooctylamine]; conditions: in DMSO
Procedure: as §1

Perfluorobutanoic acid = compound: O=C(O)C(F)(F)C(F)(F)C(F)(F)F [Perfluorobutanoic acid]; conditions: in DMSO
Procedure: as §1

[5] = compound: O=C(O)C(F)(F)OC(F)(F)C(F)(F)OC(F)(F)F [Perfluoro-3,6-dioxaheptanoic acid]; conditions: in DMSO
Procedure: as §1

[6] = compound: OCCC(F)(F)C(F)(F)C(F)(F)C(F)(F)C(F)(F)C(F)(F)F [6:2 Fluorotelomer alcohol]; conditions: in DMSO
Procedure: as §1

[7] = compound: OCCCC(F)(F)C(F)(F)C(F)(F)C(F)(F)C(F)(F)C(F)(F)C(F)(F)F [7:3 Fluorotelomer alcohol]; conditions: 6700 nM; in DMSO
Procedure: as §1

Row | Test System | level (log10) ([1]; 6700 nM) | level (log10) ([1]; 20000 nM) | level (log10) ([2]; 6700 nM) | level (log10) ([2]; 20000 nM) | level (log10) ([3]; 6700 nM) | level (log10) ([3]; 20000 nM) | level (log10) ([3]; 60000 nM) | level (log10) ([4]; 6700 nM) | level (log10) ([4]; 20000 nM) | level (log10) ([4]; 60000 nM) | level (log10) (Perfluorobutanoic acid; 6700 nM) | level (log10) (Perfluorobutanoic acid; 20000 nM) | level (log10) (Perfluorobutanoic acid; 60000 nM) | level (log10) ([5]; 6700 nM) | level (log10) ([5]; 20000 nM) | level (log10) ([5]; 60000 nM) | level (log10) ([6]; 6700 nM) | level (log10) ([6]; 20000 nM) | level (log10) [7]
1 | HDF3CGF:CD54/ICAM-1 | 0.133 ± 0.019 | 0.089 ± 0.0042 | -0.013 ± 0.021 | -0.014 ± 0.041 | -0.0065 ± 0.013 | -0.0215 ± 0.00071 | -0.0195 ± 0.0064 | -0.003 ± 0.013 | -0.0055 ± 0.011 | -0.0095 ± 0.0078 | -0.005 ± 0.016 | 0.0035 ± 0.00071 | 0.001 ± 0.0057 | 0.002 ± 0.0014 | -0.003 ± 0.0028 | -0.008 ± 0.014 | -0.01 ± 0.0071 | -0.0075 ± 0.0064 | -0.024 ± 0.0085
2 | HDF3CGF:CD106/VCAM-1 | -0.0825 ± 0.046 | -0.173 ± 0.11 | -0.0045 ± 0.012 | -0.0245 ± 0.025 | -0.0335 ± 0.019 | -0.102 ± 0.033 | -0.429 ± 0.011 | -0.0015 ± 0.0078 | -0.0445 ± 0.074 | -0.08 ± 0.095 | -0.008 ± 0.0014 | 0.0295 ± 0.026 | -0.0085 ± 0.015 | -0.033 ± 0.024 | 0.023 ± 0.082 | -0.039 ± 0.061 | -0.0175 ± 0.063 | -0.0145 ± 0.042 | -0.0795 ± 0.005
3 | HDF3CGF:CXCL8/IL-8 | 0.0345 ± 0.016 | 0.011 ± 0.0071 | 0.001 ± 0.013 | 0.006 ± 0.0028 | 0.001 ± 0.0099 | 0.011 ± 0.0028 | 0.0225 ± 0.0064 | -0.0025 ± 0.005 | -0.018 ± 0.0099 | -0.002 ± 0.0042 | -0.002 ± 0.0014 | -0.004 ± 0.0085 | 0.0015 ± 0.0021 | -0.004 ± 0.013 | 0.0015 ± 0.005 | 0.0185 ± 0.016 | 0.004 ± 0.0028 | 0.004 | -0.005 ± 0.0042
4 | HDF3CGF:CXCL9/MIG | -0.0065 ± 0.015 | -0.159 ± 0.023 | 0.0165 ± 0.012 | 0.0155 ± 0.016 | -0.0255 ± 0.044 | -0.0445 ± 0.0092 | -0.149 ± 0.11 | -0.006 ± 0.018 | -0.0205 ± 0.011 | -0.0115 ± 0.005 | -0.005 ± 0.021 | -0.014 ± 0.0028 | 0.012 ± 0.024 | -0.011 ± 0.014 | 0.0145 ± 0.0064 | -0.02 ± 0.047 | -0.0015 ± 0.023 | 0.001 ± 0.0028 | -0.0225 ± 0.018
5 | HDF3CGF:CXCL10/IP-10 | -0.0725 ± 0.05 | -0.206 ± 0.0057 | 0.003 ± 0.021 | -0.034 ± 0.075 | -0.011 ± 0.0099 | -0.053 ± 0.0071 | -0.11 ± 0.023 | 0.0115 ± 0.03 | -0.006 ± 0.011 | -0.0005 ± 0.00071 | -0.002 ± 0.0057 | 0.0035 ± 0.005 | -0.0025 ± 0.013 | 0.007 ± 0.011 | 0.0095 ± 0.0078 | -0.0075 ± 0.043 | -0.009 ± 0.0099 | -0.0295 ± 0.0092 | -0.047 ± 0.03
6 | HDF3CGF:CXCL11/I-TAC | -0.0535 ± 0.046 | -0.172 ± 0.041 | -0.0005 ± 0.079 | -0.0275 ± 0.087 | -0.0155 ± 0.00071 | -0.027 ± 0.0042 | -0.143 ± 0.042 | -0.0135 ± 0.035 | -0.021 ± 0.033 | -0.046 ± 0.078 | 0.005 ± 0.016 | -0.0035 ± 0.011 | 0.001 ± 0.023 | -0.017 ± 0.0057 | -0.0035 ± 0.022 | -0.0035 ± 0.012 | 0.002 ± 0.0071 | 0.0155 ± 0.0035 | -0.0445 ± 0.023
7 | HDF3CGF:Collagen I | 0.0835 ± 0.03 | 0.112 ± 0.0092 | 0.003 ± 0.078 | -0.0135 ± 0.15 | 0.003 ± 0.017 | 0.0055 ± 0.005 | -0.093 ± 0.061 | -0.047 | -0.0275 ± 0.0078 | 0.028 ± 0.081 | -0.022 ± 0.025 | -0.0105 ± 0.023 | 0.0175 ± 0.07 | 0.0055 ± 0.0064 | 0.049 ± 0.0085 | 0.069 ± 0.0014 | -0.036 ± 0.057 | -0.0445 ± 0.08 | -0.0325 ± 0.046
8 | HDF3CGF:Collagen III | -0.0465 ± 0.05 | -0.142 ± 0.044 | -0.0295 ± 0.049 | -0.049 ± 0.081 | 0.0695 ± 0.026 | -0.008 ± 0.12 | -0.0595 ± 0.022 | -0.009 ± 0.021 | -0.0055 ± 0.00071 | -0.0165 ± 0.023 | -0.014 ± 0.011 | -0.004 ± 0.016 | 0.0135 ± 0.029 | 0.0025 ± 0.0078 | 0.0225 ± 0.0035 | 0.0375 ± 0.022 | 0.001 ± 0.038 | -0.014 ± 0.021 | 0.0135 ± 0.044
9 | HDF3CGF:EGFR | -0.102 ± 0.024 | -0.115 ± 0.0021 | -0.015 ± 0.0028 | 0.0035 ± 0.023 | 0.046 ± 0.02 | 0.059 ± 0.021 | 0.038 ± 0.031 | -0.039 ± 0.047 | -0.047 ± 0.073 | -0.034 ± 0.086 | -0.004 ± 0.041 | -0.0155 ± 0.025 | 0.012 ± 0.0057 | 0.033 ± 0.0071 | 0.031 ± 0.047 | 0.048 ± 0.054 | 0.0005 ± 0.012 | 0.006 ± 0.0099 | -0.005 ± 0.12
10 | HDF3CGF:M-CSF | -0.101 ± 0.013 | -0.27 ± 0.0071 | -0.0115 ± 0.018 | -0.0145 ± 0.012 | -0.0275 ± 0.053 | -0.0415 ± 0.011 | -0.198 ± 0.11 | -0.0255 ± 0.0064 | -0.031 ± 0.061 | -0.027 ± 0.069 | 0.0025 ± 0.012 | 0.0055 ± 0.005 | 0.0035 ± 0.00071 | -0.015 ± 0.0099 | -0.013 ± 0.0042 | -0.0105 ± 0.05 | -0.009 ± 0.0099 | -0.0075 ± 0.0021 | 0.0035 ± 0.044
11 | HDF3CGF:MMP-1 | 0.043 ± 0.013 | 0.0065 ± 0.026 | 0.0095 ± 0.012 | -0.008 ± 0.024 | 0.0565 ± 0.013 | 0.078 ± 0.0085 | 0.089 ± 0.037 | -0.012 ± 0.0014 | 0.0015 ± 0.0035 | 0.013 ± 0.0014 | 0.0135 ± 0.0064 | 0.0095 ± 0.0035 | 0.021 ± 0.027 | -0.009 ± 0.0099 | 0.0085 ± 0.013 | -0.014 ± 0.03 | -0.0025 ± 0.00071 | 0.0015 ± 0.00071 | -0.034 ± 0.021
12 | HDF3CGF:PAI-I | -0.0695 ± 0.061 | -0.211 ± 0.08 | -0.003 ± 0.028 | 0.0125 ± 0.015 | 0.078 ± 0.02 | 0.0135 ± 0.0078 | 0.0355 ± 0.096 | 0.008 ± 0.033 | -0.018 ± 0.0042 | -0.003 ± 0.023 | -0.0025 ± 0.029 | 0.007 ± 0.054 | 0.018 ± 0.052 | -0.0525 ± 0.00071 | 0.0225 ± 0.037 | 0.06 | -0.013 ± 0.014 | -0.004 ± 0.013 | 0.0175 ± 0.029
13 | HDF3CGF:Proliferation 72hr | -0.391 ± 0.079 | -0.746 ± 0.094 | 0 ± 0.034 | 0.0055 ± 0.0078 | -0.058 ± 0.0099 | -0.257 ± 0.04 | -0.832 ± 0.16 | -0.041 ± 0.045 | 0.004 ± 0.035 | -0.016 ± 0.041 | 0.01 ± 0.054 | 0.0145 ± 0.0021 | 0.0285 ± 0.029 | 0.0205 ± 0.05 | 0.055 ± 0.034 | 0.06 ± 0.0014 | -0.007 ± 0.05 | 0.0005 ± 0.086 | -0.49 ± 0.0042
14 | HDF3CGF:SRB | -0.127 ± 0.011 | -0.153 ± 0.084 | 0.0005 ± 0.057 | 0.0145 ± 0.06 | 0.0335 ± 0.036 | 0.0065 ± 0.023 | -0.052 ± 0.033 | -0.0315 ± 0.0078 | 0.0335 ± 0.046 | 0.0315 ± 0.12 | 0.0125 ± 0.0064 | -0.007 ± 0.0028 | 0.002 ± 0.0071 | 0 ± 0.013 | -0.015 ± 0.018 | 0.0175 ± 0.039 | -0.0245 ± 0.073 | 0.008 ± 0.054 | -0.014 ± 0.027
